Experiment [1] deals with Full-length (FL)-PRMT5-MEP50 enzyme complex (Homo sapiens (Human), UniProt O14744). In words: PRMT5-MEP50 Enzyme Methylation Assay. For Enzyme Methylation Assay IC50 1: top concentration 100000 nM. Format: biochemical. On the procedure:
PRMT5-MEP50 Enzyme Methylation Assay
PRMT5/MEP50 biochemical assay is a direct measurement of the methylation activity of the enzyme complex on a short peptide substrate derived from the N-terminus of H4 histone. The methylation experiment is performed with recombinant protein. The assessment of inhibitory effect (IC50) of small molecules is measured by the effectiveness of the compounds to inhibit this reaction.
To each well of a white ProxiPlus 384 well-plate, 100 nL of compound (1% DMSO in final assay volume of 10 μL) was dispensed, followed by the addition of 8 μL of 1× assay buffer (50 mM Bicine pH 8.0, 1 mM DTT, 0.004% Tween20, 0.01% BSA) containing 0.5 nM of Full-length (FL)-PRMT5-MEP50 enzyme complex (recombinant proteins from baculovirus-transfected Sf21 cells: FL-PRMT5; MW=[…] and FL-MEP50; MW=38614). Plates were sealed and placed in a 37° C. humidified chamber for 30 minutes pre-incubation with compounds. Subsequently, each reaction was initiated by the addition of 2 μL 1× assay buffer containing 75 nM biotinylated H4R3(Me1) peptide, and 15 μM S-(5′-Adenosyl)-L-Methionine Chloride (SAM). The final reaction in each well of 10 μL consists of 0.5 nM PRMT5-MEP50, 75 nM biotinylated-peptide, and 15 μM SAM. Methylation reactions were allowed to proceed for 150 minutes in a sealed plate at 37° C. Reactions were immediately quenched by the addition of 1 μL of 10% formic acid. Plates were then frozen and shipped to SAMDI™ Tech Inc. to determine the percent conversion from […]. IC50 values were determined by 7 parameters biphasic fit model plotting the percent product conversion vs. (Log10) compound concentrations.

In another experiment the target is PRMT5 (Homo sapiens (Human), UniProt O14744). Put plainly: PRMT5 Cell Target Engagement (TE) Assay. The experiment is classed as cell-based. The following applies: treated 3 days, nuclear SDMA by high content imaging, top concentration 10000 nM. The source says:
PRMT5 Cell Target Engagement (TE) Assay
The PRMT5 TE assay is a biomarker assay for identifying compounds that inhibit symmetric dimethylation of arginine (SDMA) of PRMT5 substrates. This assay detects symmetrically dimethylated nuclear proteins using high content imaging technology. Detection of the expression of symmetrically dimethylated nucleo proteins is through a mixture of primary rabbit monoclonal antibodies to SDMA (CST 13222), which in turn recognized by an Alexafluor 488 dye-conjugated anti-rabbit IgG secondary antibody. The IN Cell Analyzer 2200 measures nuclear Alexafluor 488 fluorescent dye intensity that is directly related to the level of expression of symmetrically dimethylated nuclear proteins at the single cell level. Nuclear AF488 dye intensities are compared to the mean value for DMSO treated cells […] to report percent of inhibition for each compound-treated well.
Each well of a BD falcon collagen coated black/clear bottom 384-well plate was seeded with 4000 MCF-7 cells and allowed to attach for 5 hours. Media from cell plate was removed at 0.5 mm above the bottom of the plate and replaced with 30 μL of fresh media containing 1.2× compounds in 0.1% DMSO. Cells were treated for 3 days in 37° C. CO2 incubator. On day 3, cells were fixed with Cytofix, permeablized with 0.4% Triton-X-100/Cytofix, and washed with D-PBS without Ca/Mg. Cells were blocked with Licor Odessey blocking reagent for one hour at room temperature, followed by incubation with anti-SDMA (1:1000) antibody at 4° C. overnight. 1 antibody was removed, followed by three washings with DPBS without Ca/Mg and 0.05% Tween20. Hoechst (5 μg/ml), Cell Mask deep stain (1:2000) and Alexa488-conjugated goat anti-rabbit IgG (2 μg/mL) was added for 1 hour at room temperature. A final washing step (three washes) was performed before sealing plate for imaging on In Cell Analyzer 2200. Images from analyzer were uploaded to Columbus (at WP) for image analysis. IC50 values were determined by 4 parameters robust fit of percent fluorescence units vs. (Log10) compound concentrations.

Where [2] appears, read: read-out: Enzyme Methylation Assay IC50_1.
The mark [3] stands for this setting: read-out: Enzyme Methylation Assay IC50_2.
The mark [4] stands for this setting: MCF-7 cells, read-out: TE Assay EC50.

SMILES strings stand for the structures. Where two headings read alike, the source gives them in different places.

Sequence of Full-length (FL)-PRMT5-MEP50 enzyme complex (O14744 whole entry): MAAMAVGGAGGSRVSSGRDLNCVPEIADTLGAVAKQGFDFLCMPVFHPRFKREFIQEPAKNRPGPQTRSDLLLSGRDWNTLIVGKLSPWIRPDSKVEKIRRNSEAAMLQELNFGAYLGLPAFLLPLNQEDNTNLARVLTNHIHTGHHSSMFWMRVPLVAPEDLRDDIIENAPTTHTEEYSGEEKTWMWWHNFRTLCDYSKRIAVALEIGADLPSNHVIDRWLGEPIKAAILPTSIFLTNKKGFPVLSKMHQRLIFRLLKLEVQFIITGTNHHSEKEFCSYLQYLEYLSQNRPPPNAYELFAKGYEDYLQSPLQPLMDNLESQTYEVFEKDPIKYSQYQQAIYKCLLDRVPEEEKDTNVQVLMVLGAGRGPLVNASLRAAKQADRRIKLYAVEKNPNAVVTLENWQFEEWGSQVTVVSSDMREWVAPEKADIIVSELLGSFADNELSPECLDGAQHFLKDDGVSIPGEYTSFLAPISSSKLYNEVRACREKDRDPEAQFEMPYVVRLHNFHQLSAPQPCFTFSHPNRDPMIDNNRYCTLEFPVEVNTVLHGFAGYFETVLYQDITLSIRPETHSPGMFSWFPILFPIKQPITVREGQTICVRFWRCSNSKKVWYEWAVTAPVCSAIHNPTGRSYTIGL
Sequence of Full-length (FL)-PRMT5-MEP50 enzyme complex (Q9BQA1 whole entry partner): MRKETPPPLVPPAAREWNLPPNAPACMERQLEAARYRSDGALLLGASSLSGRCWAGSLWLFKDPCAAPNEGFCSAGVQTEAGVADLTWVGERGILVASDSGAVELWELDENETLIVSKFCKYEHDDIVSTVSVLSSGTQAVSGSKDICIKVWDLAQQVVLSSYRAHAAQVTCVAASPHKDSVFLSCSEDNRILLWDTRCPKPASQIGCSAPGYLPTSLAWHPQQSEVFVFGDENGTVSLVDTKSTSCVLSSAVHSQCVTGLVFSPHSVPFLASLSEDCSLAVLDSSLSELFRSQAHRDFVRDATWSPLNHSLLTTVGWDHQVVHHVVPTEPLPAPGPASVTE
Sequence of PRMT5 (O14744 whole entry): as the sequence (O14744 whole entry) above
Sequence of PRMT5 (Q9BQA1 whole entry partner): as the sequence (Q9BQA1 whole entry partner) above

For orientation: EC50 means the concentration giving half of the maximal effect. In the case of `CC[C@H]1CN(C[C@@H](O)[C@@H]2Cc3ccccc3CN2)C(=O)c2ccc(Br)cc21` (single isomer, unassigned) [Example 1], the IC50 was 5.38 nM in experiment [1] (setting [2]) and 3740 nM in experiment [1] (setting [3]). Further, the concentration giving a half-maximal response (EC50) on PRMT5 (setting [4]) is 2860 nM.

Regarding `CC[C@H]1CN(C[C@@H](O)[C@@H]2Cc3ccccc3CN2)C(=O)c2ccc(Br)cc21` (single isomer, unassigned) [Example 2], the IC50 in experiment [1] (setting [2]) was 0.21 nM; in experiment [1] (setting [3]), 172 nM. At PRMT5 (setting [4]), the half-maximal effective concentration (EC50) turned out to be 213 nM.

As for `CC[C@H]1CN(C[C@@H](O)[C@@H]2Cc3ccccc3CN2)C(=O)c2ccc(Br)cc21` (single isomer, unassigned) [Example 3], the IC50 in experiment [1] (setting [2]) stood at 411 nM; in experiment [1] (setting [3]) it was 21300 nM. The EC50 at PRMT5 (setting [4]) is ≥ 10000 nM.

For `CC[C@H]1CN(C[C@@H](O)[C@@H]2Cc3ccccc3CN2)C(=O)c2ccc(Br)cc21` (single isomer, unassigned) [Example 4], the IC50 came out at 45.8 nM in experiment [1] (setting [2]) and 25800 nM in experiment [1] (setting [3]). Besides, on PRMT5 (setting [4]), the concentration for a half-maximal effect (EC50) was ≥ 10000 nM.

For `CC[C@H]1CN(C[C@@H](O)[C@@H]2Cc3ccccc3CN2)C(=O)c2ccc(-c3ncnn3C)cc21` (single isomer, unassigned) [Example 5], the values for the IC50 in experiment [1] (setting [2]) and in experiment [1] (setting [3]) were 465 nM and ≥ 100000 nM, respectively. On PRMT5 (setting [4]), the EC50 is ≥ 10000 nM.

In the case of `CC[C@H]1CN(C[C@@H](O)[C@@H]2Cc3ccccc3CN2)C(=O)c2ccc(-c3ncnn3C)cc21` (single isomer, unassigned) [Example 6], the values for the IC50 in experiment [1] (setting [2]) and in experiment [1] (setting [3]) were 3.82 nM and 5080 nM, respectively. Also, the EC50 at PRMT5 (setting [4]) stood at 1440 nM.

Regarding `CC[C@H]1CN(C[C@@H](O)[C@@H]2Cc3ccccc3CN2)C(=O)c2ccc(-c3ncnn3C)cc21` (single isomer, unassigned) [Example 7], the IC50 was determined as 0.31 nM in experiment [1] (setting [2]) and 313 nM in experiment [1] (setting [3]). The concentration for a half-maximal effect (EC50) on PRMT5 (setting [4]) was 143 nM.

For the compound `CC[C@H]1CN(C[C@@H](O)[C@@H]2Cc3ccccc3CN2)C(=O)c2ccc(-c3ncnn3C)cc21` (single isomer, unassigned) [Example 8], the IC50 came out at 49 nM in experiment [1] (setting [2]) and 28500 nM in experiment [1] (setting [3]). Moreover, on PRMT5 (setting [4]), the EC50 worked out at 7680 nM.

On to `CCC1CN(C[C@@H](O)[C@@H]2Cc3ccccc3CN2)C(=O)c2ccc(-c3ncnn3C3CC3)cc21` (single isomer, unassigned) [Example 10], for which the results for the IC50 in experiment [1] (setting [2]) and in experiment [1] (setting [3]) were 0.4 nM and 374 nM, respectively. Further, at PRMT5 (setting [4]), the EC50 was 22.6 nM.

For the compound `CC[C@H]1CN(C[C@@H](O)[C@@H]2Cc3ccccc3CN2)C(=O)c2ccc(C(=O)N3C4CCC3COC4)cc21` (single isomer, unassigned) [Example 13], the IC50 in experiment [1] (setting [2]) was 0.36 nM; in experiment [1] (setting [3]), 270 nM. On PRMT5 (TE Assay EC50, MCF-7 cells), this compound returned an EC50 of 30 nM.

On to `CC[C@H]1CN(C[C@@H](O)[C@@H]2Cc3ccccc3CN2)C(=O)c2ccc(C(=O)N3C4CCC3COC4)cc21` (single isomer, unassigned) [Example 14], for which the IC50 in experiment [1] (setting [2]) was determined as 0.24 nM; in experiment [1] (setting [3]), 31.7 nM. This compound displayed an EC50 on PRMT5 (TE Assay EC50, MCF-7 cells) of 2.52 nM.

For the compound `CC[C@H]1CN(C[C@@H](O)[C@@H]2Cc3ccccc3CN2)C(=O)c2ccc(C(=O)N3C4CCC3COC4)cc21` (single isomer, unassigned) [Example 15], the IC50 in experiment [1] (setting [2]) came to 9.54 nM; in experiment [1] (setting [3]) it was 3210 nM. For the same compound, on PRMT5 (setting [4]), the EC50 worked out at 120 nM.

On to `CC[C@H]1CN(C[C@@H](O)[C@@H]2Cc3ccccc3CN2)C(=O)c2ccc(C(=O)N3C4CCC3COC4)cc21` (single isomer, unassigned) [Example 16], for which the IC50 was determined as 17.6 nM in experiment [1] (setting [2]) and 8840 nM in experiment [1] (setting [3]). On PRMT5 (setting [4]), the concentration giving a half-maximal response (EC50) turned out to be 829 nM.

For `CC1(C)CN(C[C@@H](O)[C@@H]2Cc3ccccc3CN2)C(=O)c2ccc(-c3ncnn3C3CC3)cc21` [Example 9, 6-(1-cyclopropyl-1H-1,2,4-triazol-5-yl)-2-{(2R)-2-hydroxy-2-[(3S)-1,2,3,4-tetrahydroisoquinolin-3-yl]ethyl}-4,4-dimethyl-3,4-dihydroisoquinolin-1(2H)-one], the values for the IC50 in experiment [1] (setting [2]) and in experiment [1] (setting [3]) were 0.47 nM and 422 nM, respectively. Moreover, the EC50 on PRMT5 (setting [4]) came out at 29.5 nM.

As to `O=C1c2ccc(-c3ncnn3C3CC3)cc2C2(CCC2)CN1C[C@@H](O)[C@@H]1Cc2ccccc2CN1` [Example 11, 6′-(1-cyclopropyl-1H-1,2,4-triazol-5-yl)-2′-{(2R)-2-hydroxy-2-[(3S)-1,2,3,4-tetrahydroisoquinolin-3-yl]ethyl}-2′,3′-dihydro-1′H-spiro[cyclobutane-1,4′-isoquinolin]-1′-one], the IC50 in experiment [1] (setting [2]) stood at 0.29 nM; in experiment [1] (setting [3]), 127 nM. The EC50 at PRMT5 (setting [4]) turned out to be 17 nM.

Consider `CCC1CN(CC(O)[C@@H]2Cc3ccccc3CN2)C(=O)c2ccc(C(=O)N3C4CCC3COC4)cc21` (stereo partly drawn) [Example 12, 4-ethyl-2-{2-hydroxy-2-[(3S)-1,2,3,4-tetrahydroisoquinolin-3-yl]ethyl}-6-(3-oxa-8-azabicyclo[3.2.1]oct-8-ylcarbonyl)-3,4-dihydroisoquinolin-1(2H)-one], for which the IC50 was found to be 0.63 nM in experiment [1] (setting [2]) and 253 nM in experiment [1] (setting [3]). A half-maximal response on PRMT5 (TE Assay EC50, MCF-7 cells) (EC50) required 29.8 nM.

As to `CC1(C)CN(C[C@@H](O)[C@@H]2Cc3ccccc3CN2)C(=O)c2ccc(Br)cc21` [Example 17, 6-bromo-2-((R)-2-hydroxy-2-((S)-1,2,3,4-tetrahydroisoquinolin-3-yl)ethyl)-4,4-dimethyl-3,4-dihydroisoquinolin-1(2H)-one], the IC50 came to 0.61 nM in experiment [1] (setting [2]) and 368 nM in experiment [1] (setting [3]). On PRMT5 (setting [4]), the half-maximal effective concentration (EC50) was 200 nM.

In the case of `CC1(C)CN(C[C@H](O)[C@@H]2Cc3ccccc3CN2)C(=O)c2ccc(Br)cc21` [Example 18, 6-bromo-2-((S)-2-hydroxy-2-((S)-1,2,3,4-tetrahydroisoquinolin-3-yl)ethyl)-4,4-dimethyl-3,4-dihydroisoquinolin-1(2H)-one], the values for the IC50 in experiment [1] (setting [2]) and in experiment [1] (setting [3]) were 225 nM and ≥ 100000 nM, respectively. The EC50 on PRMT5 (setting [4]) was ≥ 10000 nM.

Turning to `CC1(C)CN(C[C@@H](O)[C@@H]2Cc3ccccc3CN2)C(=O)c2ccc(C(=O)N3C4CCC3COC4)cc21` [Example 19, 6-(3-oxa-8-azabicyclo[3.2.1]octane-8-carbonyl)-2-((R)-2-hydroxy-2-((S)-1,2,3,4-tetrahydroisoquinolin-3-yl)ethyl)-4,4-dimethyl-3,4-dihydroisoquinolin-1(2H)-one], the IC50 is 0.53 nM in experiment [1] (setting [2]) and 138 nM in experiment [1] (setting [3]). On PRMT5 (TE Assay EC50, MCF-7 cells), this compound showed an EC50 of 9.5 nM.

As for `CC1(C)CN(C[C@H](O)[C@@H]2Cc3ccccc3CN2)C(=O)c2ccc(C(=O)N3C4CCC3COC4)cc21` [Example 20, 6-(3-oxa-8-azabicyclo[3.2.1]octane-8-carbonyl)-2-((S)-2-hydroxy-2-((S)-1,2,3,4-tetrahydroisoquinolin-3-yl)ethyl)-4,4-dimethyl-3,4-dihydroisoquinolin-1(2H)-one], the IC50 worked out at 12.9 nM in experiment [1] (setting [2]) and 4070 nM in experiment [1] (setting [3]). At PRMT5 (setting [4]), the EC50 amounted to 153 nM.

As for `CC1(C)CN(C[C@@H](O)[C@@H]2Cc3ccccc3CN2)C(=O)c2ccc(C(=O)N3[C@@H]4CC[C@H]3C[C@@H](O)C4)cc21` [Example 21, 2-((R)-2-hydroxy-2-((S)-1,2,3,4-tetrahydroisoquinolin-3-yl)ethyl)-6-((1R,3R,5S)-3-hydroxy-8-azabicyclo[3.2.1]octane-8-carbonyl)-4,4-dimethyl-3,4-dihydroisoquinolin-1(2H)-one], the IC50 in experiment [1] (setting [2]) stood at 0.52 nM; in experiment [1] (setting [3]), 88.1 nM. Moreover, the 50% effective concentration (EC50) on PRMT5 (TE Assay EC50, MCF-7 cells) worked out at 5.52 nM.

The values above are taken from patent publication US11098059B2, “PRMT5 inhibitors” (Merck Sharp & Dohme Corp., priority 2017, dated 2021).
